In patent EP0400440B1, “Amino acid derivative anticonvulsant” (RESEARCH CORPORATION TECHNOLOGIES, INC., priority 1989, dated 1990):

Experiments:
[1] = system: male Carworth Farms #1 mice; experiment: Maximal electroshock seizure test (MES); type: in vivo; details: Mus musculus, maximal electroshock seizures
Source text: (§1) Pharmacology. The following compounds were'tested for anticonvulsant activity using male Carworth Farms #1 mice: • N-Acetyl-D,L-alanine-N'-benzylamide • N-Acetyl-D-alanine-N'-benzylamide • N-Acetyl-L-alanine-N'-benzylamide • N-Acetyl-D,L-phenylglycine-N'-methylamide • N-Acetylglycine-N-benzylamide • N-Acetyl-D,L-valine-N-benzylamide • N-Acetyl-D,L-phenylglycine-N-benzylamide • N-Acetyl-D-phenylglycine-N-benzylamide • N-Acetyl-L-phenylglycine-N-benzylamide • N-Acetyl-D,L-alanine-N-(3-methoxy)benzylamide • N-Trimethylacetyl-D,L-alanine-N-benzylamide • N-Acetyl-D,L-methionine-N-benzylamide • N-Acetyl-D,L-alanine-N'-(3-fluoro)benzylamide • D,L-α-Acetamido-N-benzyl-3-thiopheneacetamide • D,L-α-Acetamido-N-benzyl-2-thiopheneacetamide • D,L-α-Acetamido-N-benzyl-2-furanacetamide • D,L-α-Acetamido-N-benzyl-2-pyrroleacetamide • D,L-2-Acetamido-N-benzyl-2-ethoxyacetamide • D,L-α-Acetamido-N-benzyl-2-(5-methylfuran)acetamide • D,L-α-Acetamido-N-benzyl-2-benzofuranacetamide • D,L-α-Acetamido-N-benzyl-2-benzo[b]thiopheneacetamide • D,L-α-Acetamido-N-benzyl-2-(5-methylpyrrole)acetamide • D,L-α-Acetamido-N-(2-fluorobenzyl)-2-furanacetamide • D,L-α-Acetamido-N-(3-fluorobenzyl)-2-furanacetamide • D,L-α-Acetamido-N-(4-fluorobenzyl)-2-furanacetamide • D,L-α-Acetamido-N-(2,5-difluorobenzyl)-2-furanacetamide • D,L-α-Acetamido-N-(2,6-difluorobenzyl)-2-furanacetamide • D-(-)-α-Acetamido-N-benzyl-2-furanacetamide • L-(+)-α-Acetamido-N-benzyl-2-furanacetamide • D,L-2-Acetamido-4-pentenoic acid-N-benzylamide • D,L-2-Acetamido-N-benzyl-2-(1-morpholine)acetamide (reference compound) • D,L-2-Acetamido-N-benzyl-2-(N-anilino)acetamide • D,L-2-Acetamido-N-benzyl-2-(methylamino)acetamide • D,L-2-Acetamido-N-benzyl-2-(ethylamino)acetamide • D,L-2-Acetamido-N-benzyl-3-indoleacetamide (reference compound)
(§2) N-Acetyl-D,L-alanine-N'-benzylamide was tested at […] as well. […] Maximal electroshock seizures (MES) were elicited with a 60 cycle alternating current of 50 mA intensity (5-7 times that necessary to elicit minimal electroshock seizures) delivered for 0.2 sec via corneal electrodes. A drop of 0.9% saline was instilled in the eye prior to application of the electrodes so as to prevent the death of the animal. Protection in this test was defined as as the abolition of the hind limb tonic extension component of the seizure. The Subcutaneous Pentylenetetrazole (Metrazol^R) Seizure Threshold Test (sc Met) entailed the administration of 85 mg/kg of pentylenetetrazole as a 0.5% solution subcutaneously in the posterior midline. […] Protection was defined as a failure to observe even a threshold seizure (a single episode of clonic spasms of at least 5 sec duration). The effects of the compounds on forced and spontaneous motor activity were evaluated in mice using the Rotorod Test (Tox) or, in some cases, as indicated herein, a horizontal screen assay (HS). The procedure for the rotorod test is described in J. Am. Pharm. Assoc., 46, 208-209 (1957). In the rotorod test, the animal was placed on a one-inch diameter knurled plastic rod rotating at 6 rpm after the administration of the drug. Normal mice can remain on a rod rotating at this speed indefinitely. Neurologic toxicity was defined as the failure of the animal to remain on the rod for one minute. In the horizontal screen test, previously trained mice were dosed with the compound and placed individually on top of a square (13 cm X 13 cm) wire screen (no. 4 mesh) which was mounted on a metal rod. The rod was rotated 180°, and the number of mice that returned to the top of the screen was determined. Inability to climb to the top within one minute was defined as "neurological impairment". This procedure is described in Pharmacol. Biochem. Behav. 6, 351-353 (1977).
(§3) The dose effect behavior of the compounds was evaluated using the above-described procedures by the administration of varying dose levels, treating normally eight mice at each dose. […]

[2] = Rotorod Test (Tox), neurologic toxicity; details: mouse, in vivo, mice, median toxic dose, 95% confidence intervals in brackets
Description: The effects of the compounds on forced and spontaneous motor activity were evaluated in mice using the Rotorod Test (Tox) or, in some cases, as indicated herein, a horizontal screen assay (HS). […] In the rotorod test, the animal was placed on a one-inch diameter knurled plastic rod rotating at 6 rpm after the administration of the drug. Normal mice can remain on a rod rotating at this speed indefinitely. Neurologic toxicity was defined as the failure of the animal to remain on the rod for one minute. In the horizontal screen test, previously trained mice were dosed with the compound and placed individually on top of a square (13 cm X 13 cm) wire screen (no. 4 mesh) which was mounted on a metal rod. The rod was rotated 180°, and the number of mice that returned to the top of the screen was determined. Inability to climb to the top within one minute was defined as "neurological impairment".

[3] = Horizontal screen test (HS), neurological impairment; type: in vivo; details: mouse, in vivo; mice; determined using the horizontal screen test (footnote xx); 95% confidence intervals in brackets; read-out: Tox TD50
Source text: as §1, §2, §3

[4] = system: male Carworth Farms #1 mice; experiment: as above; type: in vivo; details: determined using the horizontal screen test (footnote xx), 95% confidence intervals in brackets
Source text: as §1, §2, §3

[5] = system: male Carworth Farms #1 mice; experiment: Subcutaneous Pentylenetetrazole (Metrazol) Seizure Threshold Test (sc Met); type: in vivo; details: 85 mg/kg pentylenetetrazole subcutaneously, 95% confidence intervals in brackets
Description: Pharmacology. […]
N-Acetyl-D,L-alanine-N'-benzylamide was tested at 600 mg/mL as well. […] The effects of the compounds on forced and spontaneous motor activity were evaluated in mice using the Rotorod Test (Tox) or, in some cases, as indicated herein, a horizontal screen assay (HS). […] The rod was rotated 180°, and the number of mice that returned to the top of the screen was determined. […]
as §3

[6] = 50 mA, 0.2 sec, corneal electrodes, 95% confidence intervals in brackets

Compound	ED50 [1, 6] [mg/kg]	TD50 [3] [mg/kg]	also measured
C=CCC(NC(C)=O)C(=O)NCc1ccccc1 (racemic) [(D,L)-2-Acetamido-4-pentenoic Acid-N-benzylamide]	33.6		
CC(=O)NC(C(=O)NCc1ccccc1)N1CCOCC1 (racemic) [(D,L)-2-Acetamido-N-benzyl-2-(1-morpholine)acetamide, reference compound]	30 to 100		
CC(=O)NC(Nc1ccccc1)C(=O)NCc1ccccc1 (racemic) [(D,L)-2-Acetamido-N-benzyl-2-(N-anilino)acetamide]			ED50 ([1]; result given as footnote symbol): ≥ 300 mg/kg
CCNC(NC(C)=O)C(=O)NCc1ccccc1 (racemic) [(D,L)-2-Acetamido-N-benzyl-2-(ethylamino)acetamide]	42.4		
CNC(NC(C)=O)C(=O)NCc1ccccc1 (racemic) [(D,L)-2-Acetamido-N-benzyl-2-(methylamino)acetamide]	44.5		TD50 [2]: 95 mg/kg
CC(=O)NC(C(=O)NCc1cc(F)ccc1F)c1ccco1 (racemic) [(D,L)-α-Acetamido-N-(2,5-fluorobenzyl)-2-furanacetamide]	23.8		
CC(=O)NC(C(=O)NCc1c(F)cccc1F)c1ccco1 (racemic) [(D,L)-α-Acetamido-N-(2,6-difluorobenzyl)-2-furanacetamide]	25 to 100		
CC(=O)NC(C(=O)NCc1ccccc1F)c1ccco1 (racemic) [(D,L)-α-Acetamido-N-(2-fluorobenzyl)-2-furanacetamide]	40		
CC(=O)NC(C(=O)NCc1cccc(F)c1)c1ccco1 (racemic) [(D,L)-α-Acetamido-N-(3-fluorobenzyl)-2-furanacetamide]	13.3	136	
CC(=O)NC(C(=O)NCc1ccc(F)cc1)c1ccco1 (racemic) [(D,L)-α-Acetamido-N-(4-fluorobenzyl)-2-furanacetamide]	12.7	144	
CC(=O)NC(C(=O)NCc1ccccc1)c1ccc(C)o1 (racemic) [(D,L)-α-Acetamido-N-benzyl-2-(5-methylfuran)acetamide]	19.2		Tox TD50 [4]: 75.4^xx mg/kg
CC(=O)NC(C(=O)NCc1ccccc1)c1ccc(C)[nH]1 (racemic) [(D,L)-α-Acetamido-N-benzyl-2-(5-methylpyrrole)acetamide]	36.5		
CC(=O)NC(C(=O)NCc1ccccc1)c1cc2ccccc2s1 (racemic) [(D,L)-α-Acetamido-N-benzyl-2-benzo[b]thiopheneacetamide]	100 to 300	100 to 300	
CC(=O)NC(C(=O)NCc1ccccc1)c1cc2ccccc2o1 (racemic) [(D,L)-α-Acetamido-N-benzyl-2-benzofuranacetamide]	100 to 300	100 to 300	
CC(=O)NC(C(=O)NCc1ccccc1)c1ccco1 (racemic) [D,L-α-Acetamido-N-benzyl-2-furanacetamide]		23.8	TD50 [2]: > 300 mg/kg
O=C1NC(=O)C(c2ccccc2)(c2ccccc2)N1 [phenytoin]			sc Met ED50 [5]: not effective
